Laboratory results as given in publication PMC7838034 (Acta Pharmaceutica Sinica. B, 2020).
Read-outs that look alike come from different tables or passages of the source.

How the values were obtained:
PARP1 = PARP1 (Homo sapiens, UniProt P09874); test: PARP1 inhibition assay; type: biochemical; settings: tested in duplicate, average; for inhibition at 1 µM: read-out: Inhibition rate PARP1, 1 μmol/L; for inhibition at 10 µM: read-out: Inhibition rate PARP1, 10 μmol/L
[1] = target: recombinant BRD4(BD1 + BD2) (Homo sapiens, UniProt O60885); test: BRD4 inhibition assay; type: binding; settings: for inhibition at 1 µM: read-out: Inhibition rate BRD4, 1 μmol/L; for inhibition at 1 µM / inhibition at 10 µM / Inhibition rate BRD4: tested in duplicate, average; for inhibition at 10 µM: read-out: Inhibition rate BRD4, 10 μmol/L
MDA-MB-468 cells [2] = test: Cell viability assay; type: cell-based, human; settings: read-out: Anti-proliferative activity (IC50)
MDA-MB-468 cells [3] = test: Annexin V-FITC/PI apoptosis assay; type: cell-based, human; settings: 1, 3.3 and 10 μmol/L
[4] = Pharmacokinetic study, oral; type: in vivo, Sprague–Dawley rats
[5] = test system: protein expression in MDA-MB-468 cells; test: Western blot analysis; type: cell-based, human
MDA-MB-468 cells [6] = test: Colony formation assay; type: cell-based, human; settings: compared with DMSO-treated control
MCF-7 cells = test: Annexin V-FITC/PI apoptosis assay; type: cell-based, human
[7] = HE staining of major organs of xenograft mice; type: in vivo, nude mice (BALB/c); settings: after 19d treatment, all groups of both xenograft models
[8] = test system: BRD4 and PARP1 in MDA-MB-468 tumor tissues; test: IHC staining of tumor tissue; type: in vivo, nude mice (BALB/c); settings: 40 mg/kg, compared with control group
[9] = test system: BRD4 and PARP1 in MCF-7 tumor tissues; test: IHC staining of tumor tissue; type: in vivo, nude mice (BALB/c); settings: 19d treatment groups
MCF-7 tumor xenograft = test: MCF-7 breast cancer xenograft model
[10] = test system: MDA-MB-468 tumor xenograft; test: MDA-MB-468 breast cancer xenograft model
[11] = male, Sprague-Dawley, rat, plasma, po, 10 mg/kg
[12] = MDA-MB-468 cells, cell viability assay for 24 h

Chain of PARP1 (P09874 whole entry): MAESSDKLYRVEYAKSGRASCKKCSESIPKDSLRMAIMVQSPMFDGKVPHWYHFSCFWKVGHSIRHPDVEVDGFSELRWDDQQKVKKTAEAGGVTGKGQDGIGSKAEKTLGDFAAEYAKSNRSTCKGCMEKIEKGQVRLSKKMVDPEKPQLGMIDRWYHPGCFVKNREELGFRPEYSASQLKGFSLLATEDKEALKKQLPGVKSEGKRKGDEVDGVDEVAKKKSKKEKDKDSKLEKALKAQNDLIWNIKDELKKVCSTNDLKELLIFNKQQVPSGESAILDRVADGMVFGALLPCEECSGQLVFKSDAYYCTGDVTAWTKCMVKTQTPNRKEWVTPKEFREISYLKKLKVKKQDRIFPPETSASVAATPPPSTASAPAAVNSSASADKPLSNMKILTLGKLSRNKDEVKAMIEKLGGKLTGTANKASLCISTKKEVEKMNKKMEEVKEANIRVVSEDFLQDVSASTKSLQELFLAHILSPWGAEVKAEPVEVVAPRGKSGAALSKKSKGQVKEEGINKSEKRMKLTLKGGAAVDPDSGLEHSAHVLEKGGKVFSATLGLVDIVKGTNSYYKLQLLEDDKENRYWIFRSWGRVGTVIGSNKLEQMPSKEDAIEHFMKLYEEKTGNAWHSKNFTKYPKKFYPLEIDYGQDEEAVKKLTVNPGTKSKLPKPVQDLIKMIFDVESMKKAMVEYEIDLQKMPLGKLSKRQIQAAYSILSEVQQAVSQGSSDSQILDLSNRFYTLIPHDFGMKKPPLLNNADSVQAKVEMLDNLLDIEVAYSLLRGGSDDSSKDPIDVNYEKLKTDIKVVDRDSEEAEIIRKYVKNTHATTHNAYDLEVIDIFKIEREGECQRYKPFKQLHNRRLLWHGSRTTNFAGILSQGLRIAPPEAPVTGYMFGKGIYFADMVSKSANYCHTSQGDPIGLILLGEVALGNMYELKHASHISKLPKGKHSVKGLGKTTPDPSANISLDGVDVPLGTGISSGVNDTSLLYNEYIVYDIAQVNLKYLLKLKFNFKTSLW

| Molecule | inhibition at 1 µM (PARP1) | inhibition at 10 µM (PARP1) | inhibition at 1 µM [1] | inhibition at 10 µM [1] | IC50 (MDA-MB-468 cells [2]; Homo sapiens, MDA-MB-468, 24 h) | further results |
| --- | --- | --- | --- | --- | --- | --- |
| COc1cc(OC)c2c(=O)[nH]c(-c3cc(OC)c(OCCOn4nnc5ccccc54)c(OC)c3)nc2c1 [Compound 19j, 2-(4-(2-((1H-Benzo[d][1,2,3]triazol-1-yl)oxy)ethoxy)-3,5-dimethoxyphenyl)-5,7-dimethoxyquinazolin-4(3H)-one] | 6% | 18% | 12% | 64% | > 30 µM |  |
| COc1cc(OC)c2c(=O)[nH]c(-c3cc(C)c(OCCOc4ccccc4C(N)=O)c(C)c3)nc2c1 [Compound 19f, 2-(2-(4-(5,7-Dimethoxy-4-oxo-3,4-dihydroquinazolin-2-yl)-2,6-dimethylphenoxy)ethoxy)benzamide] | 40% | 79% | 11% | 74% | 8.4 ± 1.3 µM |  |
| COc1cc(OC)c2c(=O)[nH]c(-c3ccc(OCCOn4nnc5ccccc54)c(F)c3)nc2c1 [Compound 19l, 2-(4-(2-((1H-Benzo[d][1,2,3]triazol-1-yl)oxy)ethoxy)-3-fluorophenyl)-5,7-dimethoxyquinazolin-4(3H)-one] | 1% | 14% | 29% | 80% | 23.7 ± 3.3 µM |  |
| COc1cc(OC)c2c(=O)[nH]c(-c3ccc(OCCOc4ccccc4C(N)=O)cc3)nc2c1 [Compound 19d, 2-(2-(4-(5,7-Dimethoxy-4-oxo-3,4-dihydroquinazolin-2-yl)phenoxy)ethoxy)benzamide] | 37% | 88% | 69% | 92% | 3.4 ± 1.1 µM | improved efficacy against BRD4 than RVX-208 ([1]; ratio of BRD4 IC50 values): > 30 fold; apoptosis induction (MDA-MB-468 cells [3]): induced apoptosis in a dose-dependent manner; AUC0−∞ ([4]; SD rats, p.o. 10 mg/kg, n = 3, mean ± SD): 144.72 ± 25.51 ng·h/mL; AUC(0-t) [4, 11]: 114 ± 15.8 ng·h/mL; MRT inf [4, 11]: 5.35 ± 0.44 h; PAR expression ([5]; 2 μmol/L, 24 h): effective downregulation; c-Myc expression ([5]; 2 μmol/L, 24 h): higher c-Myc inhibition efficiency than RVX-208; BAX and active form of caspase-3 expression ([5]; 1, 3.3 and 10 μmol/L): increased; BCL-2 expression ([5]; 1, 3.3 and 10 μmol/L): remarkably downregulated; expression of c-Myc and PAR ([5]; 1, 3.3 and 10 μmol/L, 24 h): decreased the expression of c-Myc and PAR in a dose-dependent manner; colony counts (MDA-MB-468 cells [6]): remarkably decreased the colony counts; apoptosis induction (MCF-7 cells): no significant changes; histological changes in major organs (HE) [7]: no visible histological changed; expression levels of BRD4 and PARP1 in tumor tissues [8]: effectively suppressed; expression levels of BRD4 and PARP1 in tumor tissues [9]: slightly downregulated; TGI rate (MCF-7 tumor xenograft; 80 mg/kg oral, once a day): 48.3%; toxicity (body weight) of the dosages used (MCF-7 tumor xenograft; 20, 40 and 80 mg/kg oral): no apparent toxicity; tumor growth inhibition (TGI) ([10]; 80 mg/kg oral, once a day): 55.3%; body weight change and death during treatment ([10]; 20, 40 and 80 mg/kg oral): slight body weight change and no death of mice |
| COc1cc(OC)c2c(=O)[nH]c(-c3cc(Cl)ccc3OCCCCOc3ccccc3C(N)=O)nc2c1 [Compound 19c, 2-(4-(4-Chloro-2-(5,7-dimethoxy-4-oxo-3,4-dihydroquinazolin-2-yl)phenoxy)butoxy)benzamide] | 29% | 84% | 7% | 54% | 7.4 ± 1.8 µM |  |
| 2-(2-(2-((3a,7a-Dihydro-1H-benzo[d][1,2,3]triazol-1-yl)oxy)ethoxy)-4-methoxyphenyl)-5,7-dimethoxyquinazolin-4(3H)-one [Compound 19q] |  |  |  |  |  | Inhibition rate PARP1 (PARP1; 1 μmol/L): 3%; Inhibition rate PARP1 (PARP1; 10 μmol/L): 2%; Inhibition rate BRD4 ([1]; 1 μmol/L): 11%; Inhibition rate BRD4 ([1]; 10 μmol/L): 80%; IC50 (MDA-MB-468 cells [2]; [12]): 24.2 ± 2.2 µM |
| COc1cc(OC)c2c(=O)[nH]c(-c3ccc(OCCOc4ccncc4C(N)=O)cc3)nc2c1 [Compound 19u, 4-(2-(4-(5,7-Dimethoxy-4-oxo-3,4-dihydroquinazolin-2-yl)phenoxy)ethoxy)nicotinamide] | 36% | 81% | 6% | 77% | 6.7 ± 2.4 µM |  |
| 2-(4-Chloro-2-(2-((3a,7a-dihydro-1H-benzo[d][1,2,3]triazol-1-yl)oxy)ethoxy)phenyl)-5,7-dimethoxyquinazolin-4(3H)-one [Compound 19r] |  |  |  |  |  | Inhibition rate PARP1 (PARP1; 1 μmol/L): 4%; Inhibition rate PARP1 (PARP1; 10 μmol/L): 6%; Inhibition rate BRD4 ([1]; 1 μmol/L): 17%; Inhibition rate BRD4 ([1]; 10 μmol/L): 77%; IC50 (MDA-MB-468 cells [2]; [12]): > 30 µM |
| COc1cc(OC)c2c(=O)[nH]c(-c3cc(Cl)ccc3OCCCOc3ccccc3C(N)=O)nc2c1 [Compound 19b, 2-(3-(4-Chloro-2-(5,7-dimethoxy-4-oxo-3,4-dihydroquinazolin-2-yl)phenoxy)propoxy)benzamide] | 35% | 81% | 3% | 69% | 10.9 ± 0.5 µM |  |
| COc1cc(OC)c2c(=O)[nH]c(-c3ccc(OCCOn4nnc5ccccc54)cc3)nc2c1 [Compound 19k, 2-(4-(2-((1H-Benzo[d][1,2,3]triazol-1-yl)oxy)ethoxy)phenyl)-5,7-dimethoxyquinazolin-4(3H)-one] | 7% | 29% | 13% | 83% | 22.9 ± 2.4 µM |  |
| COc1cc(OC)c2c(=O)[nH]c(-c3cc(OC)c(OCCOc4ccccc4C(N)=O)c(OC)c3)nc2c1 [Compound 19g, 2-(2-(4-(5,7-Dimethoxy-4-oxo-3,4-dihydroquinazolin-2-yl)-2,6-dimethoxyphenoxy)ethoxy)benzamide] | 25% | 70% | 15% | 72% | 5.7 ± 2.1 µM |  |
| COc1cc(OC)c2c(=O)[nH]c(-c3ccc(OCCOc4ccc5cn[nH]c5c4)cc3)nc2c1 [Compound 19o, 2-(4-(2-((1H-Indazol-6-yl)oxy)ethoxy)phenyl)-5,7-dimethoxyquinazolin-4(3H)-one] | 3% | 13% | 3% | 56% | > 30 µM |  |
| COc1cc(OC)c2c(=O)[nH]c(-c3cc(C)c(OCCO)c(C)c3)nc2c1 [RVX-208, reference compound] | 1% | 4% | 20% | 60% | > 30 µM |  |
| COc1cc(OC)c2c(=O)[nH]c(-c3ccc(OCCOc4ccc5nc[nH]c(=O)c5c4)cc3)nc2c1 [Compound 19t, 5,7-Dimethoxy-2-(4-(2-((4-oxo-3,4-dihydroquinazolin-6-yl)oxy)ethoxy)phenyl)quinazolin-4(3H)-one] | 1% | 25% | 9% | 67% | > 30 µM |  |
| COc1cc(OC)c2c(=O)[nH]c(-c3cc(OC)c(OCCOc4ccc5cn[nH]c5c4)c(OC)c3)nc2c1 [Compound 19n, 2-(4-(2-((1H-Indazol-6-yl)oxy)ethoxy)-3,5-dimethoxyphenyl)-5,7-dimethoxyquinazolin-4(3H)-one] | 9% | 16% | 14% | 45% | > 30 µM |  |
| COc1cc(OC)c2c(=O)[nH]c(-c3cc(Cl)ccc3OCCOc3ccccc3C(N)=O)nc2c1 [Compound 19a, 2-(2-(4-Chloro-2-(5,7-dimethoxy-4-oxo-3,4-dihydroquinazolin-2-yl)phenoxy)ethoxy)benzamide] | 30% | 85% | 31% | 90% | 6 ± 0.9 µM |  |
